Results reported in ChEMBL document CHEMBL5291721, “A preclinical secondary pharmacology resource illuminates target-adverse drug reaction associations of marketed drugs” (Nat Commun, 2023).

Columns and labels:
[1] = biological target: Beta-1 adrenergic receptor (Homo sapiens, UniProt P08588); format: functional
[2] = biological target: T1, Muscarinic acetylcholine receptor M1 (Homo sapiens, UniProt P11229); format: functional
T1 sequence (P11229 whole entry): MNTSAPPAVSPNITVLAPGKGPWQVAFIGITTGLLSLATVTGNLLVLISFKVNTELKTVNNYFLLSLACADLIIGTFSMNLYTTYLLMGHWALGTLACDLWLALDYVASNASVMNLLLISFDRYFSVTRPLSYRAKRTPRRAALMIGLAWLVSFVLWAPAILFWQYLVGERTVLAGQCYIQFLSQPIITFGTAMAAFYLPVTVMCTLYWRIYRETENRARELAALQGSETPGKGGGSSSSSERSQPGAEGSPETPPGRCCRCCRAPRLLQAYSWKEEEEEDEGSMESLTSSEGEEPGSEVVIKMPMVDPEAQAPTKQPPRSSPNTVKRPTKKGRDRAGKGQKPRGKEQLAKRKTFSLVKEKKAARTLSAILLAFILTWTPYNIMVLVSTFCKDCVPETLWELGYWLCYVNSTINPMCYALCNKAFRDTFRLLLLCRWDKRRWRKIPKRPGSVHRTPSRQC

[3] = biological target: Neuronal acetylcholine receptor subunit alpha-4 (Homo sapiens, UniProt P43681)
Neuronal acetylcholine receptor subunit alpha-4, sequence (P43681 whole entry): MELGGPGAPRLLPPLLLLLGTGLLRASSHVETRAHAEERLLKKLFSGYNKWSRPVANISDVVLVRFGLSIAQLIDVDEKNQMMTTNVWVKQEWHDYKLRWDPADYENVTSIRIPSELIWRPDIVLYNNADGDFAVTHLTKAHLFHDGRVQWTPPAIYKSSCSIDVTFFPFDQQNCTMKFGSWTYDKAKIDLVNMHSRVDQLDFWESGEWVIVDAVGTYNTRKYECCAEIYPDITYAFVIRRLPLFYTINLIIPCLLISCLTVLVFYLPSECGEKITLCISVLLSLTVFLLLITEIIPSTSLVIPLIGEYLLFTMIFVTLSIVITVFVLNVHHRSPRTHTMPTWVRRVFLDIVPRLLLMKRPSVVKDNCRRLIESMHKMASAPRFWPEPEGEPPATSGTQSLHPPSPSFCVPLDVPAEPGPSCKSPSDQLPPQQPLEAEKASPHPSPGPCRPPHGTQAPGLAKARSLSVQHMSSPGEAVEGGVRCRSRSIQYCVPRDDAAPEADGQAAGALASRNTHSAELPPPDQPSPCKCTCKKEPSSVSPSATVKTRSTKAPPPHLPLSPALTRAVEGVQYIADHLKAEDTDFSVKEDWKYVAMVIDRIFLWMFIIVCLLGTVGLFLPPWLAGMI

Cannabinoid receptor 1 = Cannabinoid receptor 1 (Homo sapiens, UniProt P21554); format: functional, cell-based
Cannabinoid receptor 1, sequence (P21554 whole entry): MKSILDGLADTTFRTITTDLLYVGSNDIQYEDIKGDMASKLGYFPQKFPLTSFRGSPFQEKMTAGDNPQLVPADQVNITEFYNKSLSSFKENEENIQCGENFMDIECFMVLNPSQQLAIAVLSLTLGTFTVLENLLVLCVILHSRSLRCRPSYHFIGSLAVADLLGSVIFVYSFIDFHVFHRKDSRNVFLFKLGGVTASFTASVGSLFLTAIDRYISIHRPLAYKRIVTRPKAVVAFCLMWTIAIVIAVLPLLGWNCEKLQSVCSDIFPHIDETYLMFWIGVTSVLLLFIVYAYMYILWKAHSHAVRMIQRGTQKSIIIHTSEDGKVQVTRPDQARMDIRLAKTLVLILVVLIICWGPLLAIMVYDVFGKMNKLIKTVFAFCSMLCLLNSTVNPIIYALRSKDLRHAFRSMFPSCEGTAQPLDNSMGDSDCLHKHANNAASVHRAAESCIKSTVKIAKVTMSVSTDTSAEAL

Endothelin-1 receptor = biological target: T2, Endothelin-1 receptor (Homo sapiens, UniProt P25101)
T2 sequence (P25101 whole entry): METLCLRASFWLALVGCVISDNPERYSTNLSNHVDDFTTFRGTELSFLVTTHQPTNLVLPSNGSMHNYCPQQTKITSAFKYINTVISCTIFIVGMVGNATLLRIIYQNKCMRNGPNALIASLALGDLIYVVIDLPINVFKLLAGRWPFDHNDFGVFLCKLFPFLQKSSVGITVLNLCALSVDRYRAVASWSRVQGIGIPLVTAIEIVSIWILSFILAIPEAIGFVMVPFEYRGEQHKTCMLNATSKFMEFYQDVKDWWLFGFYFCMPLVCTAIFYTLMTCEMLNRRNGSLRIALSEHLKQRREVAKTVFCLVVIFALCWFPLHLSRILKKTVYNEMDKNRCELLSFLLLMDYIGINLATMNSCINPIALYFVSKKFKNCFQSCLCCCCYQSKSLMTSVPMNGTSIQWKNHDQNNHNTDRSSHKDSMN

[4] = biological target: 5-hydroxytryptamine receptor 2B (Homo sapiens, UniProt P41595); format: functional, cell-based
5-hydroxytryptamine receptor 2B, sequence (P41595 whole entry): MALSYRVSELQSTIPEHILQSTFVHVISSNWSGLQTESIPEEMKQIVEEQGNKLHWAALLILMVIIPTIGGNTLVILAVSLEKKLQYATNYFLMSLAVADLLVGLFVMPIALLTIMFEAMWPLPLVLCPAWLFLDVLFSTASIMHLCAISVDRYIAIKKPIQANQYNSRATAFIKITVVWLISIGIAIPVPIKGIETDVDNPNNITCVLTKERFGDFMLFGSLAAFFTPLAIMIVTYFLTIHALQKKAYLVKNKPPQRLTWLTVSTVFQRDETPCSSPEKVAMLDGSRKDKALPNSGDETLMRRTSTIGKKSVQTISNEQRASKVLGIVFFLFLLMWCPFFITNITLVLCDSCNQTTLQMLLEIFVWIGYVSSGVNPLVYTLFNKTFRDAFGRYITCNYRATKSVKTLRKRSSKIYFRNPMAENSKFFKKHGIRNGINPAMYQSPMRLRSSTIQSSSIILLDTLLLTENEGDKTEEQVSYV

[5] = biological target: Delta-type opioid receptor (Homo sapiens, UniProt P41143)
Delta-type opioid receptor, sequence (P41143 whole entry): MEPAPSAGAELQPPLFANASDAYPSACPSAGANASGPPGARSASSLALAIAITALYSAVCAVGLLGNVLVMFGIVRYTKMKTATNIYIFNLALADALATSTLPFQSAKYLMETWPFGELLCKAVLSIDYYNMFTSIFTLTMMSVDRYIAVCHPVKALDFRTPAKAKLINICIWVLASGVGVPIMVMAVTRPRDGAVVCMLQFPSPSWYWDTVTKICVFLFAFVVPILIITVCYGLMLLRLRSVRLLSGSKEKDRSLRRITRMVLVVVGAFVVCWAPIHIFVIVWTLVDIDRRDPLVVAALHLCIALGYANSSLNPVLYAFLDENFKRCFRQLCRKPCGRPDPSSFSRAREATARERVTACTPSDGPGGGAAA

[6] = biological target: T3, Prostaglandin G/H synthase 1 (Rattus norvegicus, UniProt Q63921); format: functional
T3 sequence (Q63921 whole entry): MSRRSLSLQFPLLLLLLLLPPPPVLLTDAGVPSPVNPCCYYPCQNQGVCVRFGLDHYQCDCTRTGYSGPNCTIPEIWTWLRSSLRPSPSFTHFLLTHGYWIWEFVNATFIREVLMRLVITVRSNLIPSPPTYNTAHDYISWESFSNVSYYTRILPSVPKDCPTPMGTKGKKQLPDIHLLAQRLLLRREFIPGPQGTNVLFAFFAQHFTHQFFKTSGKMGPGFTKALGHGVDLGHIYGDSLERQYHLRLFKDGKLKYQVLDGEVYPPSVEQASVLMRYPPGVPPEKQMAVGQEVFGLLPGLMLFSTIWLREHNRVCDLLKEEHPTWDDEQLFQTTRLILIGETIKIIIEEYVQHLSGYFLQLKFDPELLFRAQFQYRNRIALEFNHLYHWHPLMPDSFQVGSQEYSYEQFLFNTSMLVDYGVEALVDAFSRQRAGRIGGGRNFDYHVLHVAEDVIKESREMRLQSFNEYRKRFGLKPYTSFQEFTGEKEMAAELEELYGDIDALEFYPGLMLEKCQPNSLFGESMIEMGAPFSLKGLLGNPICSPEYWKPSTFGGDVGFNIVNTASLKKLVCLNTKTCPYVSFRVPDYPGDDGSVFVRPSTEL

[7] = biological target: Glutamate receptor ionotropic, NMDA 1 (Rattus norvegicus, UniProt P35439)
Progesterone receptor = biological target: T4, Progesterone receptor (Homo sapiens, UniProt P06401)
T4 sequence (P06401 whole entry): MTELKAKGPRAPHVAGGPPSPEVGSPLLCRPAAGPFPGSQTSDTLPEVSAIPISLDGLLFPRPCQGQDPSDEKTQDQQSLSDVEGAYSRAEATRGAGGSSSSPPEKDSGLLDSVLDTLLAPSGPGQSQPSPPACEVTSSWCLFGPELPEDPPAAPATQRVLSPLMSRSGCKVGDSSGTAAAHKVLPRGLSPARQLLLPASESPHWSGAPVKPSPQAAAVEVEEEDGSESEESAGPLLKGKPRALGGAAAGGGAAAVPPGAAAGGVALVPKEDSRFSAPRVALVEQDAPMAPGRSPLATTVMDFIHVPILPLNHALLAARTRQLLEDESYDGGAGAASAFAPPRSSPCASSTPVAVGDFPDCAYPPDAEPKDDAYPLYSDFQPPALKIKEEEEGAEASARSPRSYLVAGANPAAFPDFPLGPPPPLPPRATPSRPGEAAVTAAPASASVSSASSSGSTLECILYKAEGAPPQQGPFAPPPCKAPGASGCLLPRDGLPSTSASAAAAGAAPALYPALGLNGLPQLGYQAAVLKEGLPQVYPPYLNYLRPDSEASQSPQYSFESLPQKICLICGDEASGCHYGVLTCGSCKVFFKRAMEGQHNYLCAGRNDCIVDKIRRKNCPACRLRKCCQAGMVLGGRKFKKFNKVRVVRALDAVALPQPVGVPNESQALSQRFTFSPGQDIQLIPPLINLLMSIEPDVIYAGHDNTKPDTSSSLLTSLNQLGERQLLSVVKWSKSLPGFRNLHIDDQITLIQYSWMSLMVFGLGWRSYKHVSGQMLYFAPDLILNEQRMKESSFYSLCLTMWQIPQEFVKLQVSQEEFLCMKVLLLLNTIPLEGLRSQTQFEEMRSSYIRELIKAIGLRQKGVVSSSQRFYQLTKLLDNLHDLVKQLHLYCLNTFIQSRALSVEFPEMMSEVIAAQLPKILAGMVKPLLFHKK
Further: assay procedure not described here.

Beta-1 adrenergic receptor, sequence (P08588 whole entry): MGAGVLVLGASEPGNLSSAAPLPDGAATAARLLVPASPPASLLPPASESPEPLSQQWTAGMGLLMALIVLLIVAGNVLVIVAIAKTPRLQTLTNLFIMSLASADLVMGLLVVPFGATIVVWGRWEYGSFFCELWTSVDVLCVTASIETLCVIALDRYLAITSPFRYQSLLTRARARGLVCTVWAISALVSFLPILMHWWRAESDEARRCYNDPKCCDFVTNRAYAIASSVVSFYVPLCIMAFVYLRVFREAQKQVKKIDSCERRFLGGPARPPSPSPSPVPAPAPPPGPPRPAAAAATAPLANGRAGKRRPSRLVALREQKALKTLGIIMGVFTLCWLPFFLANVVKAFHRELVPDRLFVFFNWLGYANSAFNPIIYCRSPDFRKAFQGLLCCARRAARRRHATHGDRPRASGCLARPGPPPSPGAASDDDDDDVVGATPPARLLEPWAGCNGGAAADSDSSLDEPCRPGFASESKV

| Structure (SMILES) | AC50 [1] | AC50 [2] | AC50 [3] | AC50 (Cannabinoid receptor 1) | AC50 (Endothelin-1 receptor) | AC50 [4] | AC50 [5] | AC50 [6] | AC50 [7] | AC50 (Progesterone receptor) |
| --- | --- | --- | --- | --- | --- | --- | --- | --- | --- | --- |
| CC(=N)N1CC[C@H](SC2=C(C(=O)O)N3C(=O)[C@H]([C@@H](C)O)[C@H]3C2)C1 | 230 µM | 68 µM | 170 µM | > 300 µM | > 300 µM | > 300 µM | 290 µM | 5.1 µM |  |  |
| CC(/C=C1\SC(=S)N(CC(=O)O)C1=O)=C\c1ccccc1 | 26 µM |  | 28 µM | > 30 µM | > 30 µM | > 30 µM | 9 µM | > 30 µM | > 30 µM |  |
| O=C1CN2Cc3c(ccc(Cl)c3Cl)N=C2N1 [ANAGRELIDE] | > 10 µM | > 10 µM | > 10 µM |  |  | > 10 µM | > 30 µM | > 30 µM | > 10 µM |  |
| CCc1oc2ccccc2c1C(=O)c1cc(Br)c(O)c(Br)c1 [BENZBROMARONE] | 29 µM |  | > 30 µM | > 30 µM | > 30 µM | 1.53 µM | > 30 µM | > 30 µM | > 10 µM |  |
| C=C(C)[C@@H]1CCC(C)=C[C@H]1c1c(O)cc(CCCCC)cc1O [CANNABIDIOL] | > 30 µM | > 30 µM | > 30 µM |  | > 30 µM | 2.28 µM | > 30 µM | 0.771 µM |  |  |
| [H]/N=C(\N/C(=N/[H])NCCCCCCNC(=N)NC(=N)Nc1ccc(Cl)cc1)Nc1ccc(Cl)cc1 [CHLORHEXIDINE] | 1.4 µM | > 10 µM | > 30 µM |  |  | 1.26 µM | > 10 µM | > 10 µM | > 10 µM |  |
| Clc1cccc(Cl)c1N=C1NCCN1 [CLONIDINE] | > 10 µM |  | > 10 µM | > 30 µM | > 30 µM | > 10 µM | > 30 µM | > 30 µM | > 10 µM |  |
| COC(=O)[C@H](c1ccccc1Cl)N1CCc2sccc2C1 [CLOPIDOGREL] |  |  | > 30 µM | > 30 µM | > 30 µM | 2 µM | > 30 µM | > 30 µM | > 30 µM |  |
| CNCC[C@H](Oc1cccc2ccccc12)c1cccs1 [DULOXETINE] | 15 µM | > 10 µM | > 10 µM | > 30 µM |  | 12 µM | > 30 µM | > 30 µM | > 10 µM |  |
| Nc1nc(O)c2ncn(COC(CO)CO)c2n1 [GANCICLOVIR] | > 30 µM |  | > 30 µM | > 30 µM | > 30 µM | > 30 µM | > 30 µM | > 30 µM | > 30 µM |  |
| Cc1cnc(NC(=O)C2=C(O)c3ccccc3S(=O)(=O)N2C)s1 [MELOXICAM] | > 10 µM |  | > 10 µM | > 30 µM | 13.4 µM | > 10 µM | > 10 µM | > 30 µM | > 10 µM |  |
| CC(=O)/N=c1/sc(S(N)(=O)=O)nn1C [METHAZOLAMIDE] | > 10 µM | > 10 µM | > 10 µM |  |  | > 10 µM | > 30 µM | > 10 µM | > 10 µM | > 30 µM |
| COc1ccnc(C[S+]([O-])c2nc3ccc(OC(F)F)cc3[nH]2)c1OC (configuration not stated) [PANTOPRAZOLE] | > 10 µM |  | > 10 µM | > 30 µM | > 30 µM | > 10 µM | > 30 µM | > 30 µM | > 10 µM |  |
| COc1ccc(Cc2nccc3cc(OC)c(OC)cc23)cc1OC [PAPAVERINE] | > 30 µM |  | > 30 µM | > 30 µM | > 30 µM | > 30 µM |  | > 30 µM | > 30 µM |  |
| O=C1NC(=O)C(c2ccccc2)(c2ccccc2)N1 [PHENYTOIN] | > 30 µM |  | > 30 µM | > 30 µM | > 30 µM | > 30 µM | > 30 µM | > 30 µM | > 10 µM |  |
| CNC(=O)c1cc(Oc2ccc(NC(=O)Nc3ccc(Cl)c(C(F)(F)F)c3)c(F)c2)ccn1 [REGORAFENIB] | > 30 µM | > 30 µM | > 30 µM |  |  |  | > 30 µM | > 30 µM |  | > 3 µM |
| CCCN(CCC)CCc1cccc2c1CC(=O)N2 [ROPINIROLE] | > 30 µM | > 30 µM | > 30 µM | > 30 µM | > 30 µM |  | > 30 µM | > 30 µM | > 10 µM |  |
| CCCN(CCc1cccs1)[C@H]1CCc2c(O)cccc2C1 [ROTIGOTINE] | > 30 µM | 25 µM | > 30 µM | 20 µM | > 30 µM |  | 25 µM | > 30 µM |  |  |
| CC(=O)S[C@@H]1CC2=CC(=O)CC[C@]2(C)[C@H]2CC[C@@]3(C)[C@@H](CC[C@@]34CCC(=O)O4)[C@H]12 [SPIRONOLACTONE] | > 30 µM |  | > 30 µM | > 30 µM | > 30 µM | 29 µM | > 30 µM | > 30 µM | > 10 µM |  |
| CCCCNc1ccc(C(=O)OCCN(C)C)cc1 [TETRACAINE] | > 10 µM |  | > 10 µM | > 30 µM | > 30 µM | 33 µM | > 10 µM | > 30 µM | > 10 µM | > 30 µM |
| Cn1c(=O)c2[nH]cnc2n(C)c1=O [THEOPHYLLINE] | > 10 µM |  | > 10 µM | > 30 µM | > 30 µM | > 10 µM | > 30 µM | > 30 µM | > 10 µM | > 30 µM |
